Experimental data as given in patent publication US20250230193A1, “CYCLIC COMPOUND HAVING SELECTIVE KRAS INHIBITORY EFFECT ON HRAS AND NRAS” (CHUGAI SEIYAKU KABUSHIKI KAISHA, priority 2022, published 2025).
Where a SMILES comes first, the peptide text is derived from it. Bridges are numbered along the chain shown (N, C = ends). [ ]: non-standard residue; d: D form. The star is where a group is joined. hPhe(3-Cl-4-CF3) = N[C@@H](CCc1ccc(C(F)(F)F)c(Cl)c1)C(=O)O; NPrPhe(4-CF3) = CCCN[C@@H](Cc1ccc(C(F)(F)F)cc1)C(=O)O; NMeGly(cPent) = CN[C@H](C(=O)O)C1CCCC1; NEtLeu = CCN[C@@H](CC(C)C)C(=O)O; NMeChg = CN[C@H](C(=O)O)C1CCCCC1; NMeD = CN[C@@H](CC(=O)O)C(=O)O; NMeL = CN[C@@H](CC(C)C)C(=O)O; Morpholide = C1CN(*)CCO1; Piperidide = C1CCN(*)CC1; Ac4c = NC1(C(=O)O)CCC1; Sar = CNCC(=O)O

Experiments:
[1] = molecular target: GDP-bound NRAS wild-type protein (Homo sapiens, UniProt P01111); assay: Binding to NRAS by surface plasmon resonance (SPR), Single Cycle Kinetics; settings: KD ratio, GDP-bound NRAS wild-type vs GDP-bound KRAS wild-type, SPR
Chain of GDP-bound NRAS wild-type protein (P01111 whole entry): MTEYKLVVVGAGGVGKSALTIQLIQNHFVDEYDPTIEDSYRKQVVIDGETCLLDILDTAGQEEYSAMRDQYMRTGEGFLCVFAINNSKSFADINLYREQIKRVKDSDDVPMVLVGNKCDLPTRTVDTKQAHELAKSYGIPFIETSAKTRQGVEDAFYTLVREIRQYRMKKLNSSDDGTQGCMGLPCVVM

[2] = molecular target: GDP-bound HRAS wild-type protein (Homo sapiens, UniProt P01112); assay: Binding to HRAS by surface plasmon resonance (SPR), Single Cycle Kinetics; settings: KD ratio, GDP-bound HRAS wild-type vs GDP-bound KRAS wild-type, SPR
Chain of GDP-bound HRAS wild-type protein (P01112 whole entry): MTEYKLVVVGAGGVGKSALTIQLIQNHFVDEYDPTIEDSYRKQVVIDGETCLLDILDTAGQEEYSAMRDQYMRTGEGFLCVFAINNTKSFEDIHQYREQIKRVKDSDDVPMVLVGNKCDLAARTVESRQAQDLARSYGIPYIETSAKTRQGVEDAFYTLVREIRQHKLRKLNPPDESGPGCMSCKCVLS

| Structure (SMILES) | NRAS/KRAS (ratio of KD value for NRAS to KD value for KRAS) [1] | HRAS/KRAS (ratio of KD value for HRAS to KD value for KRAS) [2] |
| --- | --- | --- |
| CCCN1C(=O)CN(C)C(=O)CN(C)C(=O)[C@H]([C@@H](C)CC)NC(=O)[C@H](CC(C)C)N(C)C(=O)C[C@@H](C(=O)N2CCOCC2)N(C)C(=O)[C@H](C2CCCCC2)N(C)C(=O)C2(CCC2)NC(=O)[C@@H]2CCCN2C(=O)[C@H](CCc2ccc(C(F)(F)F)c(Cl)c2)NC(=O)CN(C)C(=O)[C@@H]1Cc1ccc(C(F)(F)F)cc1 [PP1928] ([NMeL]I[Sar][Sar][NPrPhe(4-CF3)][Sar][hPhe(3-Cl-4-CF3)]P[Ac4c][NMeChg][NMeD]-Morpholide; lactam N-11) | B (a compound having 3 or more and less than 10 is denoted as B) | B (a compound having 3 or more and less than 10 is denoted as B) |
| CCCN1C(=O)CN(C)C(=O)CN(C)C(=O)[C@H]([C@@H](C)CC)NC(=O)[C@H](CC(C)C)N(C)C(=O)C[C@@H](C(=O)N2CCCCC2)N(C)C(=O)[C@H](C2CCCC2)N(C)C(=O)C2(CCC2)NC(=O)[C@@H]2CCCN2C(=O)[C@H](CCc2ccc(C(F)(F)F)c(Cl)c2)NC(=O)CN(C)C(=O)[C@@H]1Cc1ccc(C(F)(F)F)cc1 [PP1930] ([NMeL]I[Sar][Sar][NPrPhe(4-CF3)][Sar][hPhe(3-Cl-4-CF3)]P[Ac4c][NMeGly(cPent)][NMeD]-Piperidide; lactam N-11) | B (a compound having 3 or more and less than 10 is denoted as B) | C (A compound having a KD ratio of 0.1 or more and less than 3 is denoted as C) |
| CCO[C@@H]1C[C@H]2C(=O)NC3(CC(C)(C)C3)C(=O)N(C)[C@@H](C3CCCC3)C(=O)N(C)[C@H](C(=O)N(C)C)CC(=O)N(C)[C@@H](CC(C)C)C(=O)N[C@@H]([C@@H](C)CC)C(=O)N(C)CC(=O)N(C)[C@H]3C/C=C\CCN(C3=O)[C@@H](Cc3ccc(C(F)(F)F)cc3)C(=O)N(C)CC(=O)N[C@@H](CCc3ccc(C(F)(F)F)c(F)c3)C(=O)N2C1 [PP1931] | A (a compound having 10 or more and less than 20 is denoted as A) | B (a compound having 3 or more and less than 10 is denoted as B) |
| CCC[C@H]1C(=O)N[C@@H]([C@@H](C)CC)C(=O)N(C)CC(=O)N(C)[C@H]2C/C=C\CCN(C2=O)[C@@H](Cc2ccc(C(F)(F)F)cc2)C(=O)N(C)CC(=O)N[C@@H](CCc2ccc(Cl)c(Cl)c2)C(=O)N2C[C@H](OCC)C[C@H]2C(=O)NC2(CC(C)(C)C2)C(=O)N(C)[C@@H](C2CCCC2)C(=O)N(C)[C@H](C(=O)N(C)C)CC(=O)N1C [PP1932] | A (a compound having 10 or more and less than 20 is denoted as A) | A (a compound having 10 or more and less than 20 is denoted as A) |
| CCC[C@H]1C(=O)N[C@@H]([C@@H](C)CC)C(=O)N(C)CC(=O)N(C)[C@H]2C/C=C\CCN(C2=O)[C@@H](Cc2ccc(C(F)(F)F)cc2)C(=O)N(C)CC(=O)N[C@@H](CCc2cc(F)c(C(F)(F)F)c(F)c2)C(=O)N(C)[C@@H](C)C(=O)NC2(CC(C)(C)C2)C(=O)N(C)[C@@H](C2CCCC2)C(=O)N(C)[C@H](C(=O)N(C)C)CC(=O)N1C [PP1934] | A (a compound having 10 or more and less than 20 is denoted as A) | A (a compound having 10 or more and less than 20 is denoted as A) |
| CC[C@H](C)[C@@H]1NC(=O)[C@H](CC)N(C)C(=O)C[C@@H](C(=O)N(C)C)N(C)C(=O)[C@H](C2CCCC2)N(C)C(=O)C2(CC(C)(C)C2)NC(=O)[C@H](CC)N(C)C(=O)[C@H](CCc2cc(F)c(C(F)(F)F)c(F)c2)NC(=O)CN(C)C(=O)[C@H](Cc2ccc(C(F)(F)F)cc2)N2CC/C=C\C[C@@H](C2=O)N(C)C(=O)CN(C)C1=O [PP1935] | A (a compound having 10 or more and less than 20 is denoted as A) | A (a compound having 10 or more and less than 20 is denoted as A) |
| CCC[C@H]1C(=O)N[C@@H]([C@@H](C)CC)C(=O)N(C)CC(=O)N(C)[C@H]2C/C=C\CCN(C2=O)[C@@H](Cc2ccc(C(F)(F)F)cc2)C(=O)N(C)CC(=O)N[C@@H](CCc2cc(F)c(C(F)(F)F)c(F)c2)C(=O)N(C)[C@@H](COC)C(=O)NC2(CC(C)(C)C2)C(=O)N(C)[C@@H](C2CCCC2)C(=O)N(C)[C@H](C(=O)N(C)C)CC(=O)N1C [PP1936] | AA (a compound having 20 or more is denoted as AA) | A (a compound having 10 or more and less than 20 is denoted as A) |
| CCO[C@@H]1C[C@H]2C(=O)NC(C)(C)C(=O)N(C)[C@@H](C3CCCC3)C(=O)N(C)[C@H](C(=O)N(C)CC)CC(=O)N(C)[C@@H](CC(C)C)C(=O)N[C@@H]([C@@H](C)CC)C(=O)N(C)CC(=O)N(C)[C@H]3C/C=C\CCN(C3=O)[C@@H](Cc3ccc(C(F)(F)F)cc3)C(=O)N(C)CC(=O)N[C@@H](CCc3cc(F)c(C(F)(F)F)c(F)c3)C(=O)N2C1 [PP1937] | A (a compound having 10 or more and less than 20 is denoted as A) | A (a compound having 10 or more and less than 20 is denoted as A) |
| CCCN(C)C(=O)[C@@H]1CC(=O)N(C)[C@@H](CC(C)C)C(=O)N[C@@H]([C@@H](C)CC)C(=O)N(C)CC(=O)N(C)[C@H]2C/C=C\CCN(C2=O)[C@@H](Cc2ccc(C(F)(F)F)cc2)C(=O)N(C)CC(=O)N[C@@H](CCc2cc(F)c(C(F)(F)F)c(F)c2)C(=O)N2C[C@H](OCC)C[C@H]2C(=O)NC2(COC2)C(=O)N(C)[C@@H](C2CCCC2)C(=O)N1C [PP1938] | AA (a compound having 20 or more is denoted as AA) | A (a compound having 10 or more and less than 20 is denoted as A) |
| CCC[C@H]1C(=O)N[C@@H]([C@@H](C)CC)C(=O)N(C)CC(=O)N(C)[C@H]2C/C=C\CCN(C2=O)[C@@H](Cc2ccc(C(F)(F)F)cc2)C(=O)N(C)CC(=O)N[C@@H](CCc2cc(F)c(C(F)(F)F)c(F)c2)C(=O)N2C[C@H](OCC)C[C@H]2C(=O)NC2(CC(C)(C)C2)C(=O)N(C)[C@@H]([C@@H](C)CC)C(=O)N(C)[C@H](C(=O)N(C)C)CC(=O)N1C [PP1941] | A (a compound having 10 or more and less than 20 is denoted as A) | A (a compound having 10 or more and less than 20 is denoted as A) |
| CCO[C@@H]1C[C@H]2C(=O)NC3(CC(C)(C)C3)C(=O)N(C)[C@@H](C3CCCCC3)C(=O)N(C)[C@H](C(=O)N(C)C)CC(=O)N(C)[C@@H](CC)C(=O)N[C@@H]([C@@H](C)CC)C(=O)N(C)CC(=O)N(C)[C@H]3C/C=C\CCN(C3=O)[C@@H](Cc3ccc(C(F)(F)F)cc3)C(=O)N(C)CC(=O)N[C@@H](CCc3cc(F)c(C(F)(F)F)c(F)c3)C(=O)N2C1 [PP1942] | AA (a compound having 20 or more is denoted as AA) | A (a compound having 10 or more and less than 20 is denoted as A) |
| CCC[C@H]1C(=O)N[C@@H]([C@@H](C)CC)C(=O)N(C)CC(=O)N(C)[C@H]2C/C=C\CCN(C2=O)[C@@H](Cc2ccc(C(F)(F)F)cc2)C(=O)N(C)CC(=O)N[C@@H](CCc2cc(F)c(C(F)(F)F)c(F)c2)C(=O)N2C[C@H](OCC)C[C@H]2C(=O)NC2(CC(C)(C)C2)C(=O)N(C)[C@@H](C2CCCC2)C(=O)N(C)[C@H](C(=O)N2CCC2)CC(=O)N1C [PP1943] | A (a compound having 10 or more and less than 20 is denoted as A) | B (a compound having 3 or more and less than 10 is denoted as B) |
| CCO[C@@H]1C[C@H]2C(=O)NC3(CC(C)(C)C3)C(=O)N(C)[C@@H](C3CCCC3)C(=O)N(C)[C@H](C(=O)N3CCCC3)CC(=O)N(C)[C@@H](CC)C(=O)N[C@@H]([C@@H](C)CC)C(=O)N(C)CC(=O)N(C)[C@H]3C/C=C\CCN(C3=O)[C@@H](Cc3ccc(C(F)(F)F)cc3)C(=O)N(C)CC(=O)N[C@@H](CCc3cc(F)c(C(F)(F)F)c(F)c3)C(=O)N2C1 [PP1944] | A (a compound having 10 or more and less than 20 is denoted as A) | A (a compound having 10 or more and less than 20 is denoted as A) |
| CCO[C@@H]1C[C@H]2C(=O)NC3(CC(C)(C)C3)C(=O)N(C)[C@@H](C3CCCC3)C(=O)N(C)[C@H](C(=O)N3CCCCC3)CC(=O)N(C)[C@@H](CC)C(=O)N[C@@H]([C@@H](C)CC)C(=O)N(C)CC(=O)N(C)[C@H]3C/C=C\CCN(C3=O)[C@@H](Cc3ccc(C(F)(F)F)cc3)C(=O)N(C)CC(=O)N[C@@H](CCc3cc(F)c(C(F)(F)F)c(F)c3)C(=O)N2C1 [PP1945] | AA (a compound having 20 or more is denoted as AA) | A (a compound having 10 or more and less than 20 is denoted as A) |
| CCCN1C(=O)CN(C)C(=O)CN(C)C(=O)[C@H]([C@@H](C)CC)NC(=O)[C@H](CC(C)C)N(CC)C(=O)C[C@@H](C(=O)N2CCOCC2)N(C)C(=O)[C@H](C2CCCC2)N(C)C(=O)C2(CCC2)NC(=O)[C@@H]2CCCN2C(=O)[C@H](CCc2ccc(C(F)(F)F)c(Cl)c2)NC(=O)CN(C)C(=O)[C@@H]1Cc1ccc(C(F)(F)F)cc1 [PP1946] ([NEtLeu]I[Sar][Sar][NPrPhe(4-CF3)][Sar][hPhe(3-Cl-4-CF3)]P[Ac4c][NMeGly(cPent)][NMeD]-Morpholide; lactam N-11) | B (a compound having 3 or more and less than 10 is denoted as B) | C (A compound having a KD ratio of 0.1 or more and less than 3 is denoted as C) |
